In publication PMC7002416, “Probiotic properties of a phytase producing Pediococcus acidilactici strain SMVDUDB2 isolated from traditional fermented cheese product, Kalarei” (Scientific Reports, 2020) one finds Km data, which are given here for 1 compound.

The experiment has as its system phytase (extracellular phytase from P. acidilactici SMVDUDB2). The following applies: 0.1-1.8 mM sodium phytate, 0.2 M sodium acetate pH 5.5.

Take `O=P(O)(O)O[C@H]1[C@H](OP(=O)(O)O)[C@@H](OP(=O)(O)O)[C@H](OP(=O)(O)O)[C@@H](OP(=O)(O)O)[C@H]1OP(=O)(O)O` [sodium phytate]: the Km (commonly the substrate concentration at which the rate is half of its maximum) was determined as 385 µM.
